Measurements from patent publication US10336748B2, “Methyoxy-substituted pyrrolopyridine modulators of RORC2 and methods of use thereof” (Pfizer Inc., priority 2015, dated 2019).

What was measured:
human Th17 cells = assay: IL-17 production from human Th17 cells; format: cell-based; settings: 144 h; IL-17A in supernatant by ELISA (MSD) after 6 days, human CD4+ T cells, anti-CD3 + anti-CD28 + cytokine cocktail
Experimental: The activity of compound of the invention can be also be determined by an IL-17 production from human Th17 cells assay. In general, this assay measures blockade of IL-17 production, the signature cytokine of T helper 17 (Th17) cells, by compounds. Purified human CD4+ T cells are stimulated with anti-CD3+anti-CD28 and incubated with a cytokine cocktail that induce their differentiation into Th17 in the absence or presence of various concentrations of compound. After 6 days, IL-17A concentration is measured in the cell culture supernatant with an ELISA kit (MSD).
Preparation of human CD4+ T cells. CD4+ T cells were purified from buffy coats from healthy donors (obtained from Massachusetts General Hospital) by negative selection the following procedure: Mixing 25 mL of blood with 1 mL of Rosette Sep CD4+ T cell enrichment cocktail (StemCell Technologies) followed by application of a layer of 14 mL Ficoll Paque Plus (Amersham GE Healthcare) and subsequent centrifugation at 1200 g for 20 min at room temperature. The Ficoll layer was then harvested and washed with phosphate saline buffer containing 2% (v/v) fetal bovine serum and cells were resuspended with RPMI medium containing 10% (v/v) fetal bovine serum and 10% (v/v) DMSO, frozen and kept in LN2 until used.
On the first day of the assay, a vial containing 10^7 CD4+ T cells is thawed rapidly in 37° C. water bath, immediately transferred into 20 mL X-Vivo 15 medium (Lonza), is spun for 6 min at 300×g, the supernatant is discarded, and the resulting pellet is re-suspended at 10^6 cells/mL in […] fresh X-Vivo 15 medium, followed by storage overnight in a tissue culture vessel in a humidified chamber at 37° C. and 5% CO2. Serial dilutions of compounds of the invention are prepared at 10× final concentration in X-Vivo15 medium containing 3% (v/v) DMSO.
On the second day of the assay, a 384-well tissue culture plate was coated with 10 μg/mL anti-hCD3 (eBioscience) at 50 μL/well. After 2 hr at 37° C., the supernatant is discarded and the coated plates are kept in a sterile tissue culture hood.
Cytokine plus anti-CD28 cocktail is prepared by mixing 25 ng/mL hIL-6 (Peprotech), 5 ng/mL hTGFbeta1 (Peprotech), 12.5 ng/mL IL-1beta (Peprotech), 25 ng/mL hIL-21, 25 ng/mL hIL-23 (R&D Systems), and 1 ug/mL anti-hCD28 (eBioscience) in X-Vivo 15 medium. The cytokine plus anti-CD28 cocktail with CD4+ cells is prepared such that the cocktail is diluted 10-fold and cell density is 0.22×10^6/mL. The mixture is incubated 1 hr at 37° C.
90 μL (20,000 cells) dispensed per well in the anti-hCD3 coated plate prepared as noted above.
10 μL 10× compound is added per well (final DMSO=0.3%) from the compound plate that was previously prepared, followed by 6 days of incubation in a tissue culture vessel in a humidified chamber at 37° C. and 5% CO2.
On day six of the assay, production of IL-17A in 10 μL of the supernatant is determined by sandwich ELISA using 384w hIL17 MSD plates following the manufacturer's protocol. Measurement is carried out in a Sector Imager 6000 by the same manufacturer. Signal units from the instrument are converted to pg/mL using a calibration curve with known amounts of IL-17A. IC50 values of test compounds (Table 2) are determined by the non-linear regression analysis of dose response curves.

[1] = target: T1, RORC2 ligand binding domain (6-His-RORC2 LBD) (Homo sapiens, UniProt P51449); assay: Co-activator recruitment by TR-FRET; format: biochemical; settings: 6.3 nM RORC2 LBD, 200 nM SRC1-2 coactivator peptide, 3 hr room temperature
T1 construct: made in house; host or cells: E. coli
T1 sequence (P51449 269-508 limits assumed): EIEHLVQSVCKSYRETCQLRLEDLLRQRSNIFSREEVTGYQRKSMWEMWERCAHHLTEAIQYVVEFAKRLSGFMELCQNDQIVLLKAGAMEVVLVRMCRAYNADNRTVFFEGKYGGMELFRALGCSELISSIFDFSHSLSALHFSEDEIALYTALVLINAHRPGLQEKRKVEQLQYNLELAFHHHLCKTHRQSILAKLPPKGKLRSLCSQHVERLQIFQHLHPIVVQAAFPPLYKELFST
From the text: The activity of compound of the invention can be determined by a co-activator recruitment by TR-FRET (time-resolved fluorescence resonance energy transfer) assay. In general, the assay is based on the interaction between N-terminally Six-Histidine-tagged-RORC2 ligand binding domain (6-His-RORC2 LBD), expressed in E. coli and purified by affinity chromatography, and biotin-coactivator peptide SRC1-2 (biotin-aminohexanoic acid-[…]-NH2; SEQ ID NO: 1) containing the LXXLL consensus domain which is responsible for receptor binding. This interaction is detected by addition of Europium labeled-anti-His antibody (Ex. 337 nm, Em. 620 nm, which binds to 6His) and Streptavidin-APC (Ex. 620 nm, Em. 665 nm, which binds to biotin). When receptor and coactivator are bound to each other, upon shining light at 337 nm on the sample, the Europium emits fluorescence that excites APC due to close proximity (FRET) and this signal is measured at 665 nm. Due to the long lasting fluorescence emission of Europium, the non-specific, short-lived fluorescence is time-resolved (TR) from the fluorescence of interest. Inhibitors of the interaction of receptor and coactivator peptide are detected by a decrease in TR-FRET signal.
Specifically, in one embodiment the aforementioned assay was performed as outlined below. The assay was carried out in black polystyrene. 384-well plates in a total assay volume of 50.5 μL. The assay buffer contained 50 mM TRIS-HCL pH 7.5, 1 mM NaCl, 2 mM MgCl2, 0.5 mg/mL bovine serum albumin, and 5 mM dithiothreitol. The final concentration of reagents was 6.3 nM RORC2 LBD, 200 nM SRC1-2, 50 nM streptavidin APC, 1 nM Europium-labeled anti-His antibody, and varying concentrations of compounds such that final concentration of DMSO is 1% (v/v). The assay steps were: (1) dispensing […] compound at 100× final concentration in DMSO (test wells) or DMSO only (control wells for no inhibition); and (2) dispensing 50 μL mixture of the other assay components including receptor (test wells) or excluding receptor (control wells for maximal inhibition).
Assay mixtures were incubated are room temperature for 3 hr and read in EnVision 2100 Multilabel Reader (PerkinElmer Life Sciences) at Excitation Filter 320, Emission Europium Filter 615, Emission APC Filter 665, Dichroic Mirror D400/D630.
TR-FRET signal was determined by calculating the ratio of 665 nm by 615 nm and […] values of compounds of the invention (Table 1) were determined by the non-linear regression analysis of dose response curves.

| SMILES | IC50 (human Th17 cells) [nM] | IC50 [1] [nM] |
| --- | --- | --- |
| COc1ccc(C(=O)Nc2cnc3c(c(C4CCN(C(=O)[C@@H](C)C(C)(C)C)CC4)cn3C)c2OC)cc1C#N [Example 3, (S)-3-cyano-4-methoxy-N-(4-methoxy-1-methyl-3-(1-(2,3,3-trimethylbutanoyl)piperidin-4-yl)-1H-pyrrolo[2,3-b]pyridin-5-yl)benzamide] | 6.4 | 4.6 |
| COc1c(NC(=O)c2cc(C#N)cc(CO)c2)cnc2c1c(C1CCN(C(=O)C3CCCC3)CC1)cn2C [Example 17, 3-cyano-N-(3-(1-(cyclopentanecarbonyl)piperidin-4-yl)-4-methoxy-1-methyl-1H-pyrrolo[2,3-b]pyridin-5-yl)-5-(hydroxymethyl)benzamide] | 82 | 14.2 |
| COc1ccc(C(=O)Nc2cnc3c(c(C4CCN(C(=O)[C@H](C)C(C)(C)C)CC4)cn3C)c2OC)cc1C#N [Example 4, (R)-3-cyano-4-methoxy-N-(4-methoxy-1-methyl-3-(1-(2,3,3-trimethylbutanoyl)piperidin-4-yl)-1H-pyrrolo[2,3-b]pyridin-5-yl)benzamide] | 11 | 6.9 |
| COc1c(NC(=O)c2cccc(C#N)c2)cnc2c1c(C1CCN(C(=O)[C@H](C)C3CCCC3)CC1)cn2C [Example 18, (R)-3-cyano-N-(3-(1-(2-cyclopentylpropanoyl)piperidin-4-yl)-4-methoxy-1-methyl-1H-pyrrolo[2,3-b]pyridin-5-yl)benzamide] | 6.5 | 7.1 |
